According to ChEMBL document CHEMBL2016443, “From ApoA1 upregulation to BET family bromodomain inhibition: discovery of I-BET151” (Bioorg Med Chem Lett, 2012):
pIC50: −log10 of the molar value. Active and inactive are the calls of the source. The rule behind the calls is not given here.

Legend:
Salmonella typhimurium = test: Mutagenic activity in Salmonella typhimurium by Ames assay; format: toxicity, organism-based; conditions: salmonella enterica subsp. enterica serovar typhimurium
Hepatocyte [1] = test: Bioactivation in rat hepatocytes assessed as glutathione trapping; format: cell-based
[2] = Oral bioavailability in CD rat; format: ADME, organism-based; conditions: in vivo
Hepatocyte [3] = test: Bioactivation in human hepatocytes assessed as compound epoxidation; format: cell-based
HepG2 = test: Upregulation of ApoA1 expression in human HepG2 cells assessed as concentration required to increase 70% of luciferase activity after 18 hrs by luciferase reporter gene assay; format: functional
Rattus norvegicus [4] = organism: Rattus norvegicus; test: Half life in CD rat; format: ADME, organism-based; conditions: in vivo
PBMC [5] = test: Inhibition of LPS-stimulated TNFalpha production in human PBMC; format: functional, cell-based
PBMC [6] = test: Inhibition of LPS-stimulated IL-6 production in human PBMC; format: functional, cell-based
Mus musculus [7] = test: Antiinflammatory activity in LPS-stimulated acute inflammation BALB/c mouse model assessed as inhibition of plasma PAI-1 level at 10 mg/kg, po administered 2 hrs before LPS challenge; format: functional
Hepatocyte [8] = test: Bioactivation in human hepatocytes assessed as glutathione trapping; format: cell-based
THP-1 = test: Antiinflammatory activity in human THP1 cells; format: functional, cell-based
Cytochrome P450 2C9 = Cytochrome P450 2C9 (Homo sapiens, UniProt P11712); test: Inhibition of CYP2C9; format: ADME
Hepatocyte [9] = test: Bioactivation in rat hepatocytes assessed as compound epoxidation; format: cell-based
Mus musculus [10] = test: Antiinflammatory activity in LPS-stimulated acute inflammation BALB/c mouse model assessed as inhibition of plasma MCP-1 level at 10 mg/kg, po administered 2 hrs before LPS challenge; format: functional
Mus musculus [11] = test: Antiinflammatory activity in LPS-stimulated acute inflammation BALB/c mouse model assessed as inhibition of plasma IL-6 level at 10 mg/kg, po administered 2 hrs before LPS challenge; format: functional
Mus musculus [12] = test: Antiinflammatory activity in LPS-stimulated acute inflammation BALB/c mouse model assessed as inhibition of plasma TNF-alpha level at 10 mg/kg, po administered 2 hrs before LPS challenge; format: functional
[13] = Volume of distribution at steady state in CD rat; format: ADME, organism-based; conditions: in vivo, read-out: Vdss
Rattus norvegicus [14] = organism: Rattus norvegicus; test: Dose normalized AUC (0 to infinity ) in CD rat; format: ADME, organism-based; conditions: in vivo

Chain of Cytochrome P450 2C9 (P11712 whole entry): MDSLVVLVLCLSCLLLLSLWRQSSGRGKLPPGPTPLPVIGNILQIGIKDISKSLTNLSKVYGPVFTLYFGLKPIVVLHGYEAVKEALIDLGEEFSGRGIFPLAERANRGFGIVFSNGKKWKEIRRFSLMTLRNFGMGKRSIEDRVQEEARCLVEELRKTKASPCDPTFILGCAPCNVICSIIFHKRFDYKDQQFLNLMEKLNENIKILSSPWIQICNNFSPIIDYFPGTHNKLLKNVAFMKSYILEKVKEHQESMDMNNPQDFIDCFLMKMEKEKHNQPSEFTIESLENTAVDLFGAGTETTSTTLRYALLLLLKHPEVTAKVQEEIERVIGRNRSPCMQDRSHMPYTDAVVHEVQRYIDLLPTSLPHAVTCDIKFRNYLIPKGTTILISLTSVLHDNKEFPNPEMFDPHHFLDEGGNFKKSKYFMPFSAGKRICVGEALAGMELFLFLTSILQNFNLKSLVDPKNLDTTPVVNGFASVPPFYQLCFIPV

## COc1cc2c(cc1-c1c(C)noc1C)ncc1[nH]c(=O)n([C@H](C)c3ccccn3)c12
Salmonella typhimurium
  Activity: Non-toxic
Hepatocyte [1]
  Drug metabolism: Not Active
[2]
  bioavailability: 66%
Hepatocyte [3]
  Drug metabolism: Not Active
HepG2
  EC170: 0.09 µM
Rattus norvegicus [4]
  t1/2: 1.7 h
PBMC [5]
  inhibition: Dose-dependent effect
PBMC [6]
  inhibition: Dose-dependent effect
Mus musculus [7]
  inhibition in vivo at 10 mg/kg: 35%
Hepatocyte [8]
  Drug metabolism: Not Active
THP-1
  Activity: Active
Cytochrome P450 2C9
  pIC50: 5.00
Hepatocyte [9]
  Drug metabolism: Not Active
Mus musculus [10]
  inhibition in vivo at 10 mg/kg: 47%
Mus musculus [11]
  inhibition in vivo at 10 mg/kg: 75%
Mus musculus [12]
  inhibition in vivo at 10 mg/kg: 65%
[13]
  Vd: 2.1 L/kg
Rattus norvegicus [14]
  AUC/dose: 38 kg·min/L
